In paper PMC11990879, “Anticandidal Activity of Lipopeptides Containing an LL-37-Derived Peptide Fragment KR12” (Molecules, 2025):
In brackets after ≈: the same amount, converted by molar mass. Like-named read-outs stand apart in the source and are kept apart here. Marks after values point to notes of the source that are not given here. Where a SMILES comes first, the peptide text is derived from it. The star is where a group is joined. Decanoyl = CCCCCCCCCC(=O)*; X1 = CCCCCCC(CCCC)C(=O)*; PhAc = O=C(Cc1ccccc1)*; Bz = O=C(c1ccccc1)*

Assays:
[1] = system: human red blood cells; conditions: cited from earlier work
Source text: Table 2 Minimum inhibitory concentrations (MIC) and minimum fungicidal concentrations (MFC) determined for peptides and reference antifungals [g/L]. The highest antimicrobial activity is marked in green, medium values in yellow, while the weakest antifungal activity is marked in red. Minimum hemolytic concentration (MHC5%—causing hemolysis of 5% of human red blood cells) determined in previous stu | column: MHC5%

[2] = system: C. albicans biofilms cultured on polystyrene; type: cell-based, Candida albicans
Description: (§1) Fungal strains were purchased from the Polish Collection of Microorganisms (Polish Academy of Science, Wroclaw, Poland). Four reference strains of Candida (C. albicans ATCC 10231, C. glabrata ATCC 15126, C. lypolytica PCM 2680, and C. tropicalis PCM 2680) were cultured on the Dextrose Sabouraud Agar (DSA, Neogen, Lansing, MI, USA). Before performing the assays, the fungi were cultured in a Sabouraud dextrose broth (DSB, Neogen, Lansing, MI, USA) for 48 h under aerobic conditions at 25 °C. Afterward, the fungal cultures were centrifuged (2500 rpm, 10 min) and resuspended in the appropriate liquid medium for appropriate inoculums for the performed assays.
Fungal suspensions in DSB were added to the wells at initial inoculums of ca. 5 × 10^6 CFU/mL and incubated under aerobic conditions, at 25 °C for 24 h, 48 h, and 72 h, in order to grow candidal biofilms of different maturity. After the appropriate time of incubation, the wells were washed with phosphoric buffered (PBS), and fresh RPMI medium supplemented with antifungals and the lipopeptides at graded concentrations (range […]) were added. The fungal biofilms were exposed to the compounds for 24 h (aerobic conditions, 25 °C). After the exposure to antifungals, the content of the wells was aspirated and a 0.01% solution of resazurin (Sigma-Aldrich, St. Louis, MO, USA) in DSB was added. Resazurin (blue) was applied as a cell viability reagent, which upon contact with living cells is reduced to a pink resorufin. The samples with the dye were incubated for 1 h at 25 °C and the absorbance was measured at 570 and 600 nm with a microplate reader (Thermo Fisher Scientific, Waltham, MA, USA). The assays were performed four times on four different days. The results are presented as the means of the measured percentage of metabolic activity (MA) of fungi in the well when compared with positive (sample with Candida in DSB) and negative controls (pure DSB), which were taken as 100% and 0%, respectively. The MA of Candida in the samples was measured according to the following formula:MA(%) = (ΔAbs of sample − ΔAbs of negative control)/(ΔAbs of positive control − ΔAbs of negative control);(1) ΔAbs = absorbance at 570 nm − absorbance at 600 nm.(2)
The MBEC was taken as the lowest concentration of antifungal which allowed us to reduce the metabolism of fungal cells to 10% (or less) of the positive control.

[3] = system: C. albicans biofilms cultured on polystyrene; type: cell-based, Candida albicans; conditions: C. albicans biofilms of 24, 48 and 72 h, up to 512 mg/L
[4] = system: C. lypolytica PCM 2680; assay: microbe, parasite or virus in culture; type: cell-based, Candida lipolytica; conditions: RPMI 1640, inoculum ca. 5 × 10^3 CFU/mL, range 0.5–256 mg/L, 48 h, 25 °C, read visually, three times on three days
Description: as §1
(§2) The strains cultured described in Section 4.1 were suspended in the Roswell Park Memorial Institute 1640 Medium (RPMI, Sigma-Aldrich, St. Louis, MO, USA) at an initial inoculum of ca. 5 × 10^3 CFU/mL. The stock solutions (1024 mg/L) of tested compounds in RPMI were added to 96-well polystyrene plates and diluted serially to well no. 10, leaving wells 11 and 12 for fertility and sterility controls. The tested Candida strains were exposed to graded concentrations (range 0.5–256 mg/L) of the lipopeptides and conventional antifungals (benzalkonium chloride, fluconazole, and nystatin) for 48 h under aerobic conditions at 25 °C. After incubation, the results were read visually.

[5] = system: C. albicans ATCC 10231; assay: microbe, parasite or virus in culture; type: cell-based, Candida albicans; conditions: MIC wells and two higher concentrations seeded on DSA, 48 h, 25 °C, read visually, three times
Description: as §1, §2
(§3) Then the results were read visually. Both MIC as well as the MFC assays were performed threetimes on three different days.

[6] = system: C. albicans ATCC 10231; assay: microbe, parasite or virus in culture; type: cell-based, Candida albicans; conditions: C. albicans; RPMI 1640, inoculum ca. 5 × 10^3 CFU/mL, range 0.5–256 mg/L, 48 h, 25 °C, read visually, three times on three days
Description: as §1, §2

[7] = system: C. lypolytica PCM 2680; assay: microbe, parasite or virus in culture; type: cell-based, Candida lipolytica; conditions: MIC wells and two higher concentrations seeded on DSA, 48 h, 25 °C, read visually, three times
Description: as §1, §2, §3

[8] = system: C. tropicalis PCM 2680; assay: microbe, parasite or virus in culture; type: cell-based, Candida tropicalis; conditions: C. tropicalis; RPMI 1640, inoculum ca. 5 × 10^3 CFU/mL, range 0.5–256 mg/L, 48 h, 25 °C, read visually, three times on three days
Description: as §1, §2

[9] = system: C. glabrata ATCC 15126; assay: microbe, parasite or virus in culture; type: cell-based, Candida glabrata; conditions: first C. glabrata column; RPMI 1640, inoculum ca. 5 × 10^3 CFU/mL, range 0.5–256 mg/L, 48 h, 25 °C, read visually, three times on three days
Description: as §1, §2

[10] = system: C. tropicalis PCM 2680; assay: microbe, parasite or virus in culture; type: cell-based, Candida tropicalis; conditions: MIC wells and two higher concentrations seeded on DSA, 48 h, 25 °C, read visually, three times
Description: as §1, §2, §3

[11] = system: C. glabrata ATCC 15126; assay: microbe, parasite or virus in culture; type: cell-based, Candida glabrata; conditions: MIC wells and two higher concentrations seeded on DSA, 48 h, 25 °C, read visually, three times
Description: as §1, §2, §3

[12] = system: Candida strains (C. albicans, C. glabrata, C. lipolytica, C. tropicalis); type: cell-based
Description: as §1, §2, §3

[13] = biofilms cultured on polystyrene, 24 h
[14] = biofilms cultured on polystyrene, 48 h
[15] = biofilms cultured on polystyrene, 72 h
[16] = human red blood cells, determined in previous studies, ref [13],[14]

Compound	MHC5% (minimum hemolytic concentration causing hemolysis of 5% of human red blood cells) [1] [g/L]	MBEC 24 h [2, 13]	MBEC 48 h [2, 14]	MBEC 72 h [2, 15]	Antibiofilm activity against any type of biofilm [3]	Minimum inhibitory concentration (MIC), C. lipolytica [4] [µg/mL]	MHC5% (minimum hemolytic concentration causing hemolysis of 5% of human red blood cells) [1, 16]	Minimum fungicidal concentration (MFC), C. albicans [5] [µg/mL]	Minimum inhibitory concentration (MIC), C. albicans [6] [µg/mL]	Minimum fungicidal concentration (MFC), C. lipolytica [7] [µg/mL]	Minimum inhibitory concentration (MIC), C. tropicalis [8] [µg/mL]	Minimum inhibitory concentration (MIC), C. glabrata [9] [µg/mL]	Minimum fungicidal concentration (MFC), C. tropicalis [10] [µg/mL]	Minimum fungicidal concentration (MFC), C. glabrata [11] [µg/mL]	other results
CCCCCCCCCC(=O)N[C@@H](CCCCN)C(=O)N[C@@H](CCCNC(=N)N)C(=O)N[C@H](C(=O)N[C@H](C(=O)N[C@@H](CCC(N)=O)C(=O)N[C@@H](CCCNC(=N)N)C(=O)N[C@H](C(=O)N[C@@H](CCCCN)C(=O)N[C@@H](CC(=O)O)C(=O)N[C@@H](Cc1ccccc1)C(=O)N[C@@H](CC(C)C)C(=O)N[C@@H](CCCNC(=N)N)C(N)=O)[C@@H](C)CC)C(C)C)[C@@H](C)CC [V, C10-KR12-NH2] (Decanoyl-KRIVQRIKDFLR-NH2)	4	>512 * mg/L	>512 * mg/L	>512 * mg/L	did not exhibit antibiofilm activity	–	–	–	–	–	–	–	–	–	–
CC[C@H](C)[C@H](NC(=O)[C@H](CCCNC(=N)N)NC(=O)[C@H](CCC(N)=O)NC(=O)[C@@H](NC(=O)[C@@H](NC(=O)[C@H](CCCNC(=N)N)NC(=O)[C@H](CCCCN)NC(=O)c1ccccc1)[C@@H](C)CC)C(C)C)C(=O)N[C@@H](CCCCN)C(=O)N[C@@H](CC(=O)O)C(=O)N[C@@H](Cc1ccccc1)C(=O)N[C@@H](CC(C)C)C(=O)N[C@@H](CCCNC(=N)N)C(N)=O [VIII, Benzoic acid-KR12-NH2] (Bz-KRIVQRIKDFLR-NH2)	–	–	–	–	–	32 (≈ 19.1 µM)	>256 * g/L	64 (≈ 38.2 µM)	64 (≈ 38.2 µM)	32 (≈ 19.1 µM)	8 (≈ 4.78 µM)	256 (≈ 153 µM)	16 (≈ 9.55 µM)	256 (≈ 153 µM)	–
CCCCCCC(CCCC)C(=O)N[C@@H](CCCCN)C(=O)N[C@@H](CCCNC(=N)N)C(=O)N[C@H](C(=O)N[C@H](C(=O)N[C@@H](CCC(N)=O)C(=O)N[C@@H](CCCNC(=N)N)C(=O)N[C@H](C(=O)N[C@@H](CCCCN)C(=O)N[C@@H](CC(=O)O)C(=O)N[C@@H](Cc1ccccc1)C(=O)N[C@@H](CC(C)C)C(=O)N[C@@H](CCCNC(=N)N)C(N)=O)[C@@H](C)CC)C(C)C)[C@@H](C)CC (stereo partly shown) [XIX, 2-Butyloctanoic acid-KR12-NH2] (X1-KRIVQRIKDFLR-NH2)	16	>512 * mg/L	>512 * mg/L	>512 * mg/L	did not exhibit antibiofilm activity	–	–	–	–	–	–	–	–	–	MIC, range over the tested strains ([12]; 48 h): 4 to 16 µg/mL
CC[C@H](C)[C@H](NC(=O)[C@H](CCCNC(=N)N)NC(=O)[C@H](CCC(N)=O)NC(=O)[C@@H](NC(=O)[C@@H](NC(=O)[C@H](CCCNC(=N)N)NC(=O)[C@H](CCCCN)NC(=O)Cc1ccccc1)[C@@H](C)CC)C(C)C)C(=O)N[C@@H](CCCCN)C(=O)N[C@@H](CC(=O)O)C(=O)N[C@@H](Cc1ccccc1)C(=O)N[C@@H](CC(C)C)C(=O)N[C@@H](CCCNC(=N)N)C(N)=O [XXI, Phenylacetic acid-KR12-NH2] (PhAc-KRIVQRIKDFLR-NH2)	–	–	–	–	–	16 (≈ 9.47 µM)	256 g/L	64 (≈ 37.9 µM)	64 (≈ 37.9 µM)	16 (≈ 9.47 µM)	8 (≈ 4.74 µM)	256 (≈ 152 µM)	16 (≈ 9.47 µM)	256 (≈ 152 µM)	–
benzalkonium chloride [reference compound]	–	–	–	–	–	1	–	4	2	2	0.5	1	2	2	Fungicidal activity (MFC relative to MIC) ([12]; MFCs equal to or twice as high as the corresponding MICs): fungicidal activity against all Candida strains; MBEC 24 h ([2]; C. albicans biofilm cultured on polystyrene for 24 h, exposure 24 h, 25 °C, RPMI, resazurin, metabolic activity reduced to 10% or less, four times on four days): 64 mg/L; MBEC 48 h ([2]; C. albicans biofilm cultured on polystyrene for 48 h, exposure 24 h, 25 °C, RPMI, resazurin, metabolic activity reduced to 10% or less, four times on four days): 128 mg/L; MBEC 72 h ([2]; C. albicans biofilm cultured on polystyrene for 72 h, exposure 24 h, 25 °C, RPMI, resazurin, metabolic activity reduced to 10% or less, four times on four days): 128 mg/L; Concentration effective against 48–72 h biofilms relative to MIC ([2]; C. albicans, 48–72 h biofilms, MBEC/MIC): > 60 times; Concentration effective against 24 h biofilm relative to MIC ([2]; C. albicans, 24 h biofilm, MBEC/MIC): over 30 times
